From US9375411B2, “Uses and methods for the treatment of liver diseases or conditions” (Verlyx Pharma Inc., priority 2012, dated 2016)
Values joined by “and” are separate entries in the source; they are usually repeats but may differ in a detail not shown here. Equal values may be shown once. Read-outs that look alike come from different tables or passages of the source.

How the values were obtained:
[1] = Repeat dose oral capsule or intravenous infusion, tissue concentrations and ratios; type: in vivo, Male Beagle Dogs; conditions: Beagle dogs; for Kp / Tmax / AUC(0-t) / Cmax: male, dog
Protocol: Pharmacokinetics Study in Male Beagle Dogs. Three oral formulations were tested.
In this example, the pharmacokinetics and biodistribution are studied in Male Beagle Dogs. The Dog is a relevant model since the elimination rate from the different organs, mainly the liver, are closer to that observed in man. Three oral formulations were tested and compared to the injectable formulation: […]
The test item dosing formulation was administered once daily as a 2-hour intravenous infusion via the saphenous and/or cephalic vein using an infusion pump, using a temporary peripheral vein catheter attached to a syringe, for 2 consecutive days. The dose volume was 4 mL/kg and the infusion rate was 2 mL/kg/hour for all animals. The actual volume administered to each animal was calculated and adjusted based on the most recent practical body weight of each animal. The catheter was flushed with 0.9% Sodium Chloride for Injection, USP (saline) in order to ensure that the whole intended dose was administered to the animals, after which the temporary catheter was removed and discarded.
The test item was administered twice daily (targeted time: 12 hours apart) by oral capsule administration for 3 consecutive days to fasted animals (at least 4 hours prior to dosing). Food was returned 2 hours post-dose.
The number of capsules to be administered to each animal was fixed to 2 capsules/animals/occasion. If needed, following dosing, the oral cavity was rinsed with an appropriate volume of reverse osmosis water to facilitate swallowing. The oral cavity was inspected following dosing to ensure that the capsules have been swallowed.
The following tables present the different Pharmacokinetic parameters for IV and PO groups, the concentrations of pentamidine in different tissues and the tissue to blood and tissue to liver concentration ratios.

[2] = test system: GalN/LPS-induced liver injury; experiment: GalN/LPS fulminant liver injury survival study; type: in vivo; conditions: C57BL/6 mice; IP 30 minutes prior GalN/LPS; PENTAMIDINE 40 mpk, Decamidine 10 mpk
Protocol: In this experiment, the 8-hour survival rate for C57BL/6 mice is evaluated when treated or not with two different aromatic diamidines (pentamidine isethionate(C5) and decamidine isethionate (C10)). Both compounds were administered intraperitoneally at doses close to their MTD 30 minutes prior a GalN/LPS-induced liver injury.

in vivo = conditions: female, Fox Chase SCID CB17, mouse, oral
[3] = Repeat dose oral tablet or intravenous infusion, biodistribution and tissue elimination; conditions: Beagle dogs
[4] = intravenous dosing, individual animals 1001-1006 and Mean
[5] = summary (group mean), Group 1 IV, Groups 2-4 oral capsules

## N=C(N)c1ccc(OCCCCCOc2ccc(C(=N)N)cc2)cc1 [pentamidine, pentamidine bis(2-hydroxyethanesulfonate)]
[1]; IV dosing, Day 1
  Liver AUClast: 27072 µM·h
  Liver Cmax: 210 µM
  Lung AUClast: 1807.2 µM·h
  Lung Cmax: 13.4 µM
[1]; IV, *Based on AUC
  Tissue-to-Liver Lung, based on AUC: 6.67* %
  Tissue-to-Liver Muscle, based on AUC: 2.9* %
  Tissue-to-Liver Skin, based on AUC: 0.87* %
[1]; [4]
  Concentration Blood: 0.16 μmol/L and 0.07 μmol/L and 0.08 μmol/L (2×) and 0.121 μmol/L and 0.25 μmol/L
  Concentration Brain: 0.80 μmol/L (3×) and 0.70 μmol/L and 0.90 μmol/L and 0.50 μmol/L
  Concentration Heart: 22.30 µM and 13.90 µM and 15.80 µM and 20.20 µM and 10.10 µM and 14.20 µM
  Concentration Kidney: 53.10 µM and 38.30 µM and 48.70 µM and 55.80 µM and 44.80 µM and 39.70 µM
  Concentration Liver: 208 µM and 174 µM and 168 µM and 210 µM and 125 µM and 159 µM
  Concentration Lung: 11.56 µM and 11.52 µM and 13.39 µM and 10.48 µM and 9.80 µM and 11.80 µM
  Concentration Muscle: 5.28 µM and 4.98 µM and 5.29 µM and 6.11 µM and 2.82 µM and 5.56 µM
  Concentration Pancreas: 8.50 µM and 6.00 µM and 8.00 µM and 8.20 µM and 4.60 µM and 7.10 µM
  Concentration Skin: 1.45 μmol/L and 1.23 μmol/L and 1.41 μmol/L and 1.80 μmol/L and 1.63 μmol/L (2×)
[1]; [5]
  Tissue-to-Liver Brain: 0.46%
  Tissue-to-Liver Heart: 9.66%
  Tissue-to-Liver Kidney: 28.4%
  Tissue-to-Liver Lung: 6.74%
  Tissue-to-Liver Muscle: 2.9%
  Tissue-to-Liver Pancreas: 4.34%
  Tissue-to-Liver Skin: 0.91%
[1]; Beagle, brain/blood, intravenous, summary (group mean), Group 1 IV, Groups 2-4 oral capsules, read-out: Tissue-to-blood ratio Brain
  Kp: 6.19
[1]; Beagle, heart/blood, intravenous, summary (group mean), Group 1 IV, Groups 2-4 oral capsules, read-out: Tissue-to-blood ratio Heart
  Kp: 133
[1]; Beagle, kidney/blood, intravenous, summary (group mean), Group 1 IV, Groups 2-4 oral capsules, read-out: Tissue-to-blood ratio Kidney
  Kp: 386
[1]; Beagle, liver/blood, intravenous, summary (group mean), Group 1 IV, Groups 2-4 oral capsules, read-out: Tissue-to-blood ratio Liver
  Kp: 1690
[1]; Beagle, liver/blood, iv, 4 mg/kg/day, IV, *Based on AUC, read-out: Tissue-to-blood ratio Liver, based on AUC
  Kp: 922
[1]; Beagle, lung/blood, intravenous, summary (group mean), Group 1 IV, Groups 2-4 oral capsules, read-out: Tissue-to-blood ratio Lung
  Kp: 111
[1]; Beagle, lung/blood, iv, 4 mg/kg/day, IV, *Based on AUC, read-out: Tissue-to-blood ratio Lung, based on AUC
  Kp: 61.6
[1]; Beagle, muscle/blood, intravenous, summary (group mean), Group 1 IV, Groups 2-4 oral capsules, read-out: Tissue-to-blood ratio Muscle
  Kp: 48.7
[1]; Beagle, muscle/blood, iv, 4 mg/kg/day, IV, *Based on AUC, read-out: Tissue-to-blood ratio Muscle, based on AUC
  Kp: 8.01
[1]; Beagle, pancreas/blood, intravenous, summary (group mean), Group 1 IV, Groups 2-4 oral capsules, read-out: Tissue-to-blood ratio Pancreas
  Kp: 58.4
[1]; Beagle, skin/blood, intravenous, summary (group mean), Group 1 IV, Groups 2-4 oral capsules, read-out: Tissue-to-blood ratio Skin
  Kp: 14.4
[1]; Beagle, skin/blood, iv, 4 mg/kg/day, IV, *Based on AUC, read-out: Tissue-to-blood ratio Skin, based on AUC
  Kp: 26.8
[1]; beagle, brain / blood, iv, intravenous dosing, individual animals and mean, read-out: Tissue-to-blood ratio Brain
  Kp: 4.13
[1]; beagle, kidney / blood, iv, intravenous dosing, individual animals and mean, read-out: Tissue-to-blood ratio Kidney
  Kp: 370
[1]; beagle, pancreas / blood, iv, intravenous dosing, individual animals and mean, read-out: Tissue-to-blood ratio Pancreas
  Kp: 38
[1]; liver, 4 mg/kg/day, IV dosing, Day 1, read-out: Liver Tmax
  Tmax: 168 h
[1]; lung, 4 mg/kg/day, IV dosing, Day 1, read-out: Lung Tmax
  Tmax: 120 h
[1]; muscle, 4 mg/kg/day, IV dosing, Day 1, read-out: Muscle AUClast
  AUC(0-t): 786 µM·h
[1]; muscle, 4 mg/kg/day, IV dosing, Day 1, read-out: Muscle Cmax
  Cmax: 6.1 µM
[1]; muscle, 4 mg/kg/day, IV dosing, Day 1, read-out: Muscle Tmax
  Tmax: 168 h
[1]; skin, 4 mg/kg/day, IV dosing, Day 1, read-out: Skin AUClast
  AUC(0-t): 235 µM·h
[1]; skin, 4 mg/kg/day, IV dosing, Day 1, read-out: Skin Cmax
  Cmax: 1.8 µM
[1]; skin, 4 mg/kg/day, IV dosing, Day 1, read-out: Skin Tmax
  Tmax: 168 h
[2]
  8-hour survival: 83%
In vivo
  bioavailability: ~1%
[3]; instant-release tablet
  Biodistribution in organs following PO administration: favored the liver
[3]; instant-release tablet PO vs IV, normalized liver concentrations
  exposure to the pancreas and kidney, PO versus IV administration: significantly lower exposure
